target: Cannabinoid receptor 2 (Homo sapiens) (UniProt P34972); test: Binding affinity to CB2 receptor
Sequence (P34972 whole entry, looked up): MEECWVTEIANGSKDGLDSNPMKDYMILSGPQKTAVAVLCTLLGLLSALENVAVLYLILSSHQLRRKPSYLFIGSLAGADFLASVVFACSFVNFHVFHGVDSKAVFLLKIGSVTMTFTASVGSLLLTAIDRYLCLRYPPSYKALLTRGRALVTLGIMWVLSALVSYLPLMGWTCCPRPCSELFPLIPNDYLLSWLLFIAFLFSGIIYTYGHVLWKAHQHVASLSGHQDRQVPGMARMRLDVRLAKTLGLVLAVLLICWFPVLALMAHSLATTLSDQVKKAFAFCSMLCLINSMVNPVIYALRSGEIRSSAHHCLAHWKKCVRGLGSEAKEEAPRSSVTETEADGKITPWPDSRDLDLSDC

| SMILES | Ki [nM] |
| --- | --- |
| C[C@H](NS(=O)(=O)C(F)(F)F)c1ccc(S(=O)(=O)c2ccccc2S(=O)(=O)c2ccccc2F)cc1 | 25 |
| C[C@H](NS(C)(=O)=O)c1ccc(S(=O)(=O)c2ccc(Cl)cc2S(=O)(=O)c2cccc[n+]2[O-])cc1 | 119 |
| C[C@H](NCCC(F)(F)F)c1ccc(S(=O)(=O)c2ccc(Cl)cc2S(=O)(=O)c2ccccc2F)cc1 | 17 |
| CNS(=O)(=O)c1cc(Cl)ccc1S(=O)(=O)c1ccc([C@H](C)NS(C)(=O)=O)cc1 | 1250 |
| C[C@H](NCC(F)(F)F)c1ccc(S(=O)(=O)c2ccc(Cl)cc2S(=O)(=O)c2ccccc2F)cc1 | 7 |
| C[C@H](NS(=O)(=O)C(F)(F)F)c1ccc(S(=O)(=O)c2ccc(Cl)cc2S(=O)(=O)c2c(N)cccc2F)cc1 | 4.1 |
| C[C@H](NS(C)(=O)=O)c1ccc(S(=O)(=O)c2ccc(Cl)cc2S(=O)(=O)c2ccccn2)cc1 | 2.9 |
| CNc1cccc(F)c1S(=O)(=O)c1cc(Cl)ccc1S(=O)(=O)c1ccc([C@H](C)NS(=O)(=O)C(F)(F)F)cc1 | 22 |
| C[C@H](NS(C)(=O)=O)c1ccc(S(=O)(=O)c2ccc(Cl)cc2S(=O)(=O)N(C)C)cc1 | 1270 |
| C[C@H](NS(=O)(=O)C(F)(F)F)c1ccc(S(=O)(=O)c2ccc(C(F)(F)F)cc2S(=O)(=O)c2ccccc2F)cc1 | 2.5 |
| C[C@H](NS(=O)(=O)C(F)(F)F)c1ccc(S(=O)(=O)c2ccc(N)cc2S(=O)(=O)c2ccccc2F)cc1 | 10 |
| C[C@H](NS(=O)(=O)C(F)(F)F)c1ccc(S(=O)(=O)c2ccc(OC(F)(F)F)cc2S(=O)(=O)c2ccccc2F)cc1 | 5 |
| C[C@H](NS(=O)(=O)C(F)(F)F)c1ccc(S(=O)(=O)c2ccc(Cl)cc2S(=O)(=O)c2c(F)cccc2N2CCOCC2)cc1 | 140 |
| C[C@H](NC(=O)C(F)(F)F)c1ccc(S(=O)(=O)c2ccc(Cl)cc2S(=O)(=O)c2ccccc2F)cc1 | 3.7 |
| C[C@H](NS(C)(=O)=O)c1ccc(S(=O)(=O)c2ccc(Cl)cc2S(=O)(=O)c2ccccc2F)cc1 | 1.3 |
| C[C@H](NS(C)(=O)=O)c1ccc(S(=O)(=O)c2ccc(Cl)cc2S(=O)(=O)c2cccc3cccnc23)cc1 | 204 |
| C[C@H](NS(=O)(=O)C(F)(F)F)c1ccc(S(=O)(=O)c2ccc(N3CCNCC3)cc2S(=O)(=O)c2ccccc2F)cc1 | 1100 |
| CCCS(=O)(=O)c1cc(Cl)ccc1S(=O)(=O)c1ccc([C@H](C)NS(C)(=O)=O)cc1 | 308 |
| C[C@H](N)c1ccc(S(=O)(=O)c2ccc(Cl)cc2S(=O)(=O)c2ccccc2F)cc1 | 3950 |
| C[C@H](NS(=O)(=O)C(F)(F)F)c1ccc(S(=O)(=O)c2ccc(O)cc2S(=O)(=O)c2ccccc2F)cc1 | 1.3 |

— ChEMBL document CHEMBL1139959, “Optimization of triaryl bis-sulfones as cannabinoid-2 receptor ligands” (Bioorg Med Chem Lett, 2007)
